From patent publication EP0200607A1, “Surfactant chlorhexidine salts and compositions” (PIERRE FABRE COSMETIQUE, priority 1985, dated 1986)

How the values were obtained:
[1] = parameters: species or system cobaye; settings: in vivo
From the text: On peut penser que cette différence de pouvoir moussant est apportée par le solvant propylèneglycol […] Tolérance : On s'est contenté de vérifier la bonne tolérance cutanée et oculaire du tensioactif acide éthoxycarboxylique et du nouveau sel de CHX de cet exemple, pour bien démontrer la parfaite inocuité de ce nouveau produit.
. tolérance cutanée cobaye :
On voit d'après ces résultats que cette tolérance est meilleure sur ce test pour le nouveau sel de CHX que pour l'acide éthoxycarboxylique. La différence d'épaisseur de pli de peau mesuré le 4ème jour d'application quotidienne est de 0,23 contre 1,2 mm, l'érythème de 1,4 contre 4.

Candida albicans = test: Antibacterial properties (Tableau I), Candida albicans; assay type: cell-based
From the text: (§1) Des expérimentations ont été conduites afin de vérifier si ce nouveau sel de CHX possédait une bonne activité antiseptique comparativement au digluconate de CHX, sel de CHX des plus connus et largement utilisé et ce comparativement à l'acide AEC, ce dernier pouvant avoir par lui-même des propriétés antiseptiques.
(§2) L'activité de ces trois produits a été testée sur quatre germes […] et il a été constaté que non seulement on obtenait une activité voisine de celle du digluconate de CHX, mais que de plus, cette activité était plus importante dans trois cas (voir tableau I).

[2] = parameters: species or system lapin; settings: in vivo
From the text: . tolérance cutanée lapin :

[3] = test system: Pseudomonas aeruginosa A 22; test: Antibacterial properties (Tableau I), Pseudomonas aeruginosa; assay type: cell-based
From the text: as §1, §2

[4] = test system: Escherichia coli ATCC 10536; test: Antibacterial properties (Tableau I), Escherichia coli; assay type: cell-based
From the text: as §1, §2

[5] = in vivo
Staphylo-coque aureus = test: Antibacterial properties (Tableau I), Staphylococcus aureus; assay type: cell-based
From the text: as §1, §2

[6] = Foaming power (10 inversions of a stoppered cylinder); assay type: physicochemical; settings: 50 ml of a 10 % active matter solution, 100 ml cylinder, 23°C
Protocol: _Le_pouvoir moussant de l'acide éthoxycarboxylique et de l'éthoxycarboxylate de CHX a été vérifié, et ce comparativement.
A cet effet, on prépare une solution de tensioactif à 10% de matière active. On prélève 50 ml de cette solution que l'on introduit dans une éprouvette de 100 ml (diamètre intérieur 26 mm et hauteur 235 mm). On bouche hermétiquement cette éprouvette et on la soumet à 10 retournements successifs pour provoquer la formation de mousse. Cette manipulation se fait à 23°C (température de la solution).

[7] = Acute toxicity, intraperitoneal LD50; assay type: in vivo
From the text: (§3) La toxicité de ce nouveau sel de CHX a été vérifiée comparativement au tensioactrf sous forme acide de départ, au tensioactif neutralisé par l'ion sodium, à la CHX base et à l'association tensioactif neutralisé par l'ion sodium + CHX base, car il est bien connu que la toxicité d'une molécule peut être potentialisée par la présence d'un tensioactif.
(§4) Deux tests ont été utilisés : • 1- l'évaluation de la DL 50 par voie orale, • 2- l'évaluation de la DL 50 par voie intra-péritonéale.

[8] = test system: Pseudomonas aeruginosa A 22; test: Antiseptic activity by dilution in liquid medium (MIC and MBC), with anionic surfactants; assay type: cell-based; settings: Pseudomonas aeruginosa A 22, 10^6 germes/ml
From the text: de dilutions en milieu liquide, selon Peterson, Lance R., Denny, Aiken E., Gerding, Dale N. and Hall, Wendell H. :"determination of tolerance to antibiotic bactericidal on activity on Kivby-Baver susceptibility plates Am.J.Clin.Pathol. 74 : 645-650,1980.
Le but de la méthode est de déterminer la plus petite quantité d'un produit X qui exerce sur 10^6 cellules d'une flore bactérienne donnée une activité antiseptique de type bactériostatique ou bactéricide.
La méthode de dilution en milieu liquide permet de déterminer la CMI (concentration minimale inhibitrice-bacté- riostase) et la CMB (concentration minimale léthale-bactéricidie).
• . pipettes de 1 ml graduées au 1/100 en polystyrène cristal stériles, . pipettes Pasteur stériles, • . flacons en verre stériles de 30 ml, 100 ml, • . tubes à essai en verre PYREX stériles 65 x 13 mm, 160 x 16 mm, 25 x 200 mm et 18 x 180 mm, • . boîtes de Pétri, polystyrène cristal- stériles de 90 mm de diamètre, • . lumétron, colorimètre réf.401, • les milieux de culture liquides et gélosés sont adaptés à la croissance de l'espèce de microorganisme en test Pseudomonas aeruginosa. Un témoin de fertilité des milieux liquides et gélosés est réalisé à chaque expérimentation.
Les différents produits testés sont des solutions aqueuses d'alkyl éthoxycarboxylate de chlorhexidine (3%) et contenant un pourcentage variable de tensioactifs anioniques. Les solutions mères sont des dilutions au 1/10e des solutions précédentes.
Pseudomonas aeruginosa est ensemencé en stries sur une pente de gélose Tryptone Soya (CM 131 OXOID). On incube de 18 à 24 Heures à 32-35°C.
Pour le Pseudomonas aeruginosa, une transmission de 90 % représente une valeur de 2-10^8 germes/ml donc une dilution au 1/100e est nécessaire.
On prépare sur un portoir une série de tubes à hémolyse 65 x 13 mm stériles.
Chaque tube reçoit 1 ml de milieu de culture liquide dont la composition est adaptée à la croissance du germe (bouillon BN pour Pseudomonas aéruginosa).
Le tube reçoit 1 ml de la solution mère du produit à analyser. On homogénéise puis effectue des passages successifs au 1/2 jusqu'au dernier tube. Le volume dans tous les tubes est alors de 1 ml.
Toutes les dilutions sont ensemencées avec 1 ml de milieu de culture titrant […] par ml. Dans chaque tube on a alors 1.10^6 germes par ml.
Un tube sans antiseptique permet d'effectuer un dénombrement des microorganismes effectivement introduits dans le test et permet de s'assurer de la vitalité de la souche.
Dénombrement par la méthode de dilution-incorporation et incubation à l'étuve pendant 48 heures à 37°C.
La concentration minimale inhibitrice est la plus petite quantité de produit qui empêche le développement microbien (jugé à l'oeil) ;elle est exprimée en microgramme de chlorhexidine base par millilitre. […]

[9] = Acute toxicity, oral LD50; assay type: in vivo
From the text: as §3, §4

Solubility (qualitative) = settings: water

For “alkyl éthoxycarboxylique acide [AEC acide]”, which “différence d'épaisseur de pli de peau” value [1] is on record?
Its value is 1,2 mm.

And the érythème [1]?
The érythème was 4.

And the “Propriétés antibactériennes” value (Candida albicans)?
The value was 50 mg/mL.

What about the “indice d'irritation primaire” value [2] of the same compound?
The value was 0,75.

What about the “Propriétés antibactériennes” value [3] of the same compound?
The value was 6,2 mg/ml.

What about the “Propriétés antibactériennes” value [4] of the same compound?
The value was 12,5 mg/ml.

And the tolérance oculaire [5]?
The tolérance oculaire was “la mieux tolérée”.

And the “Propriétés antibactériennes” value (Staphylo-coque aureus)?
The value was 1,56 mg/ml.

What about the “Pouvoir moussant (mousse)” value [6] of the same compound?
Its value is 26 mL.

What about the “DL 50 voie intrapérito-néale” value [7] of the same compound?
Its value is 0,5 g/kg.

Which “différence d'épaisseur de pli de peau” value [1] does the source give for “Alkyl éthoxycarboxylate de chlorhexidine [AEC de CHX]” here?
The value was 0,23 mm.

What about the érythème [1] of the same compound?
Its érythème is 1,4.

And the CMI ([8]; aqueous solutions with 3% alkyl éthoxycarboxylate de chlorhexidine)?
The CMI was 8 microgramme de chlorhexidine base par millilitre.

What about the CMB ([8]; sub-culture on neutralising medium) of the same compound?
The CMB was 8 microgramme de chlorhexidine base par millilitre.

And the “indice d'irritation primaire” value [2]?
The value was 0,25.

And the “Pouvoir moussant (mousse)” value [6]?
The value was 16 mL.

With Alkyl éthoxycarboxy-late de sodium as the compound, how does the “DL 50 voie orale” value [9] read?
Its value is 7,5 g/kg.

What does the source list for `[H]/N=C(\N/C(=N/[H])NCCCCCCNC(=N)NC(=N)Nc1ccc(Cl)cc1)Nc1ccc(Cl)cc1` [chlorhexidine base, 1,6-di-(p-chlorophényl-biguanido) hexane]?
DL 50 voie orale [9]: pas de mortalité; LD50 ([7]; in vivo, ip, read-out: DL 50 voie intrapérito-néale): 47 to 100 mg/kg; solubilité dans l'eau (Solubility (qualitative)): insoluble dans l'eau

For `N=C(NCCCCCCNC(=N)NC(=N)Nc1ccc(Cl)cc1)NC(=N)Nc1ccc(Cl)cc1` [Digluconate de CHX, Digluconate de chlorhexidine], which MIC ([8]; A22, aqueous solutions with 3% alkyl éthoxycarboxylate de chlorhexidine, read-out: CMI) is on record?
Its MIC is 8.75 µg/mL.

What about the MBC ([8]; A22, sub-culture on neutralising medium, read-out: CMB) of the same compound?
Its MBC is 8.75 µg/mL.
